Source: paper PMC11487536 (ACS Pharmacology & Translational Science, 2024)
“And” between values parts separate entries of the source, which are not always exact repeats. Equal values may be shown once.

Experiments:
[1] = target: T1, sensing domain of C. jejuni Tlp3 (Campylobacter jejuni, UniProt Q0P864); test: Thermal shift assay; type: binding; details: for Midpoint Transition Temperature in Presence of Ligand, Tm: 10 μM Tlp3, ligand 3 mM (L-valine 10 mM), pH 8.0
T1 sequence (Q0P864 41-290): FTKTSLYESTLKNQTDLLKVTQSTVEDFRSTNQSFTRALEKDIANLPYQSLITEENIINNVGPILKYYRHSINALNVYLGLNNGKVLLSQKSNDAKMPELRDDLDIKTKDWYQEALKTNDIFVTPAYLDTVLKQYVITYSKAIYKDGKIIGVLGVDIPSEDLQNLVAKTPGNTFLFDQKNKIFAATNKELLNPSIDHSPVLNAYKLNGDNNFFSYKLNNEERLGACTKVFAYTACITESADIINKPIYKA

[2] = target: T2, sensing domain of P. fluorescens CtaA (Pseudomonas fluorescens, UniProt Q3K7T6); test: Thermal shift assay; type: binding; details: for Midpoint Transition Temperature in Presence of Ligand, Tm: 5 μM CtaA, ligand 20 μM, pH 5.5
T2 sequence (Q3K7T6 30-277): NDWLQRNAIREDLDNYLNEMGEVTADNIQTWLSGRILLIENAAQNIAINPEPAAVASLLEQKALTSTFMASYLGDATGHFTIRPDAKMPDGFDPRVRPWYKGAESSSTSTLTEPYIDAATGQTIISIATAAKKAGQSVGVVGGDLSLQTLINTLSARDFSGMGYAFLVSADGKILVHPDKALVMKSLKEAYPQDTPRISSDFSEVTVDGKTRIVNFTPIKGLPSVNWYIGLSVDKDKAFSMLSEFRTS

TlpC = target: T3, TlpC (Helicobacter pylori, UniProt O24911); details: 25 °C; cited from earlier work
T3 sequence (O24911 32-299): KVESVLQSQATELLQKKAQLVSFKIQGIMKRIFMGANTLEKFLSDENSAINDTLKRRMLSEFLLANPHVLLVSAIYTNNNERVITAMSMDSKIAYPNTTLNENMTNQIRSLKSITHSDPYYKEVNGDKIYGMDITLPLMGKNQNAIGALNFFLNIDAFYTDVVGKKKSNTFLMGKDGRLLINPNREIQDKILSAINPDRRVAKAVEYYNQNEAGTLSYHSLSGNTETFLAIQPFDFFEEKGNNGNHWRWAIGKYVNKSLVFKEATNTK

Structure (SMILES)	Kd [1]	Midpoint Transition Temperature in Presence of Ligand, Tm [1] [°C]	Kd [2]	Midpoint Transition Temperature in Presence of Ligand, Tm [2] [°C]	ΔHL(T) from ITC (enthalpy of ligand binding) (TlpC)
CC(C)[C@H](N)C(=O)O [L-Valine, L-valine]	578 µM and 240 µM and 316 µM	64.6 ± 0.3	1.5 µM and 1.2 µM	57.6 ± 0.2	
CCC[C@H](N)C(=O)O [L-Norvaline, L-norvaline]		63.7 ± 0.3			
C[C@H](N)C(=O)O [L-Alanine, L-alanine]			4.6 µM and 3.2 µM	56.1 ± 0.1	
CC(C)C[C@H](N)C(=O)O [L-Leucine, L-leucine]	222 µM and 90 µM and 116 µM	64.2 ± 0.2	5 ± 1 µM	54.7 ± 0.3	
C[C@H](O)C(=O)O [L-Lactate, L-lactate]					–21.32 kcal mol^–1
N[C@@H](CO)C(=O)O [L-Serine, L-serine]			9 µM and 4 µM	55.1 ± 0.3	
CC[C@H](C)[C@H](N)C(=O)O [L-Isoleucine, L-isoleucine]		64.5 ± 0.3			
